The results in this text go back to publication PMC4257840 (Journal of Medicinal Chemistry, 2014).

Assay [1] addresses T1, cathepsin H purified from human liver (Homo sapiens, UniProt P09668).
T1 construct: Tests were performed using cathepsin H purified from human liver; from tissue; host or cells: human liver
Put plainly: Protease counter-screening: Cathepsin H. The class given is biochemical.
Procedure: Cathep sin H: Tests were performed using cathepsin H purified from human liver. Test compound or vehicle was pre -incubated with 3.3 mU/mL enz yme in sodium acetate buffer pH 5.5 for 15 min at 25 °C. The reaction was initiated by addition of 20 µM L-RR- AMC for another

The target in a further assay is human liver Cat B (Homo sapiens, UniProt P07858). Put plainly: Cathepsin B inhibition assay.
Another assay concerns the target T2, human plasma thrombin (Homo sapiens, UniProt P00734).
T2 construct: thrombin in modified HEPES buffer pH 7.5; from tissue; host or cells: human plasma
As to the kind of experiment: Protease counter-screening: Thrombin. The class given is biochemical. As to conditions: test concentration 0.3-100 µM. The method, then:
(§1) Appendix 7. Protease Counter -Screening
(§2) Protease counter-screeni ng was performed using the methods described below. Initial screening was conducted in duplicate using a single test substance concentration of 10 µ M .
(§3) Additional assays were conducted in replicate for selected pairin gs of test s ubstance and enz yme in order to enable the determination of IC50 values using conventional procedures.
(§4) Determination of K i was made using the Batch K i program (Biokin Ltd, Pullman, WA) to derive values from the Morrison equation: […]
(§5) Where [E ] is the active enz yme concentration, Kiapp is the apparent inhibition const ant, v 0 is the control velocit y in the absence of inhibitors, vb is the background velocity, v is the initial reaction velocit y in the presence of inhibitor, and I is the inhibitor concentration.Thence:
(§6) Where [S ] is the substrate concentration and KM is the Michealis constant.
(§7) Caspase 1: Activity against human recombinant caspase 1 expressed in E. coli was tested using Ac-YVAD- AMC as the substrate. Test compound or vehicle was pre- incubated with 600 […]
(§8) followed by excitation/emission at 485/535 nm. […]
(§9) AMC formation was read at 360 nm/465 nm.
(§10) Cathepsin L2: Human recombinant cathepsin L2 expressed in NS0 cells was used as the enzyme source. […] Form ation of AMC was measured at 360 […]
(§11) The amount of AMC formed was read spectrofluorimetricall y at 360 nm/465 nm. […]
A general note: The purpose of a counterscreen is to sort out artefacts and off-target activity.

A further assay concerns the target T3, Cathepsin D (Homo sapiens, UniProt P07339).
T3 construct: purified from human li ver; from tissue; host or cells: human liver
As to the kind of experiment: Protease counter-screening: Cathepsin D. It is filed as biochemical. The protocol: as §1, §2, §3, §4, §5, §6, §7
Cathep sin D: Tests were performed using enz ym e purified from human li ver. Test compound or vehicle was pre- incubated with 190 mU/mL enz yme in modified acetate buffer pH 4.0 for 15 min at 37 °C. […]
The amount of MCA-P LG formed was measured spectrofluorimetricall y at 340 nm/400 nm. […]

In the next assay the target is T4, Human liver cathepsin L (Homo sapiens, UniProt P07711).
T4 construct: Human liver cathepsin L was used as the; from tissue; host or cells: human liver
As to the kind of experiment: Protease counter-screening: Cathepsin L. It is filed as biochemical.

Assay [2] deals with T5, Human recombinant cathepsin L2 (Homo sapiens, UniProt O60911).
T5 construct: host or cells: NS0 cells
Put plainly: Protease counter-screening: Cathepsin L2. The class given is biochemical. The protocol: as §1, §2, §3, §4, §5, §6, §7, §8, §9, §10, §11

Read-outs that look alike come from different tables or passages of the source. Some results are limits rather than exact numbers.

T4 sequence (P07711 114-333): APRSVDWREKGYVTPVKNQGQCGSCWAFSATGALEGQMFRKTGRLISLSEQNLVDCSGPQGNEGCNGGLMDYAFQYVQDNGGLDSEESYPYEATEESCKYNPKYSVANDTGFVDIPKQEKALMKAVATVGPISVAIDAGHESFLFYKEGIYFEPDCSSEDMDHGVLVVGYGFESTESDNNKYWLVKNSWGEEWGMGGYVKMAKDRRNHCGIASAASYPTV
T1 sequence (P09668 98-335): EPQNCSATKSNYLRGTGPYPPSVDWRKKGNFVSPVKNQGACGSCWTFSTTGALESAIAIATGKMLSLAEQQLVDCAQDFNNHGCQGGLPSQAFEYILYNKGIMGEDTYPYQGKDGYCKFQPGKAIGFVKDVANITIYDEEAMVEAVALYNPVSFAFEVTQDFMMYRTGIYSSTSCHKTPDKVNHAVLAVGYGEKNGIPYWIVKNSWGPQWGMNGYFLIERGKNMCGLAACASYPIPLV
T3 sequence (P07339 65-412): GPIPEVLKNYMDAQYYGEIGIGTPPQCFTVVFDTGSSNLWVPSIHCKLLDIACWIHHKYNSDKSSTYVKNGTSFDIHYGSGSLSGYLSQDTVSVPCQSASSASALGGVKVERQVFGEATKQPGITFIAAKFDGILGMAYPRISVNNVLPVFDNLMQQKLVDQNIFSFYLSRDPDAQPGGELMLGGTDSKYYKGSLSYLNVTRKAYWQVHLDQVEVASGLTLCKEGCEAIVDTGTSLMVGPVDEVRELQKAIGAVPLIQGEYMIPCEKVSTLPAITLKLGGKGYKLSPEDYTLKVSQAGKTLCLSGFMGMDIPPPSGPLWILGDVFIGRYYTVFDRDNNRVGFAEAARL
T5 sequence (O60911 114-334): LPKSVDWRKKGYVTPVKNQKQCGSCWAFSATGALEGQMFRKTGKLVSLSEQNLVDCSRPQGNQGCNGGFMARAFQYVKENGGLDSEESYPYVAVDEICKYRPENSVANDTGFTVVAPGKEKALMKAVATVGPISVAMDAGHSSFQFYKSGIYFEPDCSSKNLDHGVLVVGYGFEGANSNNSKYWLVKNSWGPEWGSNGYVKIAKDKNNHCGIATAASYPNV
Procedure for human liver Cat B: Inhibition of Cat B was measured as described with modifications.[25] […] Progress curves were followed at 30 °C by detection of fluorescence at 320/420 nm (excitation/emission).
In all cases, for reactions involving inhibitors, the amount of reaction buffer was adjusted to 60 μL, the inhibitor added as a 10 μL aliquot, and incubated for 20 min with the enzyme prior to reaction start.

With `CC(C)[C@H](NC(=O)[C@H](C)NC(=O)[C@@H](NC(=O)c1ccccc1)C(C)(C)C)C(=O)C(=O)NCc1ccccc1` [Compound 38, N-{(S)-1-[(S)-1-((S)-1-Benzylaminooxalyl-2-methyl-propylcarbamoyl)-ethylcarbamoyl]-2,2-dimethyl-propyl}-benzamide], the inhibition (as a rule, the percentage by which the read-out fell short of the control) at 10 µM is 13% in assay [1], 2% on Cathepsin D and 34% against Human liver cathepsin L. In addition, the IC50 (in general, the concentration that gives 50% inhibition) at human liver Cat B (read-out: Cat B IC50, mean ± SE) is 512 ± 59 nM; on human liver Cat B (read-out: Cathepsin B IC50, Table S1 counter-screening) it was 510 nM; against human plasma thrombin it was over 100000 nM; in assay [2], 3530 nM.
